The values that follow are results of earlier work, collected in PMC9290462 (British Journal of Clinical Pharmacology, 2020).

Data set [1] concerns patients with moderate‐to‐severe SLE.

As to `Cc1c(-c2c(F)cc(C(N)=O)c3[nH]c4c(c23)CC[C@H](C(C)(C)O)C4)cccc1-n1c(=O)c2cccc(F)c2n(C)c1=O` [BMS‐986142], the “alanine aminotransferase, aspartate aminotransferase and lipase” value is “associated with increases”.
For the molecule `C=CC(=O)N1CCC(CNc2ncnc(N)c2-c2ccc(Oc3ccccc3)cc2)CC1` [Evobrutinib, evobrutinib], the “alanine aminotransferase, aspartate aminotransferase and lipase” value is “associated with increases”.
On to `C[C@H]1CN(C2COC2)CCN1c1ccc(Nc2cc(-c3ccnc(N4CCn5c(cc6c5CC(C)(C)C6)C4=O)c3CO)cn(C)c2=O)nc1` [fenebrutinib], for which, in the data set with healthy volunteers, the bleeding events entry was “no reported bleeding events” and the tolerability result is “well tolerated”. Further, the primary efficacy endpoint result in data set [1] is “failed to meet its primary efficacy endpoint”.
